One data set relates to Klebsiella oxytoca 1082E. Description: Test 1: In vitro antibacterial activity (MIC), Mueller Hinton Agar dilution. In kind it is cell-based. As to conditions: read-out: Minimal Inhibitory Concentration (MIC). On the procedure: (§1) Test 1: In Vitro Antibacterial Activity Test
(§2) The compounds of Examples 1,2,3 and 4 according to the present invention were used as a test compound and imipenem was used as a comparative compound.
(§3) The test compounds and comparative compound were gradually diluted in Mueller Hinton Agar(MHA) medium. Test strains as listed in the following table were inoculated into the medium in an amount of 10^6 viable cells/ml and then incubated at 37° C. for 18 hours. Then, MIC value was measured and expressed in terms of μg/ml.

Data set [1] deals with Pseudomonas aeruginosa 1592E. The data set is described as above. The class given is cell-based. As to conditions: read-out: Minimal Inhibitory Concentration (MIC). On the procedure: as §1, §2, §3
The test system of the next data set is Salmonella typhimurium. Described as above. As to conditions: Salmonella enterica, read-out: Minimal Inhibitory Concentration (MIC). In kind it is cell-based. On the procedure: as §1, §2, §3
The next data set relates to Escherichia coil TEM. The description is as above. As to conditions: 18 h, read-out: Minimal Inhibitory Concentration (MIC). The class given is cell-based. On the procedure: as §1, §2, §3
Data set [2] concerns Enterobacter cloacae 1321E. The data set is described as above. In kind it is cell-based. The conditions noted are these: read-out: Minimal Inhibitory Concentration (MIC). On the procedure:
as §1, §2, §3

Data set [3] deals with Klebsiella aerogenes 1522E. Described as above. The class given is cell-based. The conditions noted are these: read-out: Minimal Inhibitory Concentration (MIC). On the procedure: as §1, §2, §3
Data set [4] deals with Pseudomonas aeruginosa 9027. The data set is described as above. In kind it is cell-based. The conditions noted are these: read-out: Minimal Inhibitory Concentration (MIC). On the procedure:
as §1, §2, §3

In the next data set the test system is Escherichia coli DC 2. The data set is described as above. In kind it is cell-based. As to conditions: read-out: Minimal Inhibitory Concentration (MIC). On the procedure:
as §1, §2, §3

Data set [5] relates to Staphylococcus aureus SG 511. Described as above. In kind it is cell-based. The conditions noted are these: read-out: Minimal Inhibitory Concentration (MIC). On the procedure: as §1, §2, §3
Data set [6] can be described thus: Test 2: Stability test against kidney dehydrogenase DHP-I. In kind it is in vitro ADME, pig. As to conditions: kidney dhp-i enzyme; for remaining at 5 min / remaining at 10 min / remaining at 20 min / remaining at 40 min / remaining at 80 min / remaining at 2 h: pig kidney enzyme, 10 mM phosphate buffer, 37° C., read-out: percentage of the remaining amount (stability on DHP-I enzyme); for remaining at 2 h: 120 minutes. On the procedure:
Test 2: Stability Test Against kidney Dehydrogenase DHP-I
Each of the novel compounds of Examples 1,2,3 and 4 of the present invention and the comparative compound imipenem was dissolved in 10 mM phosphate buffer and the resulting solution was mixed with dehydrogenase enzyme solution extracted from pig kidney in a ratio of equivalent amounts. The resulting mixture was incubated at 37° C. for 2 hours, during which the decomposition degree of the compound was measured. The result thereof was given in the following Table 2 in terms of percentage of the remaining amount on the basis of the initially added amount of the compound.

Data set [7] deals with various bacteria including beta-lactamase producing strains. As to conditions: compared with thienamycin; cited from earlier work.
The conditions of data set [8]: substances produced by DHP-I enzyme decomposition; cited from earlier work.
Data set [9] concerns DHP-I enzyme present in human kidney. As to conditions: cited from earlier work.
For another data set, the system named is Pseudomonas aeruginosa. The conditions noted are these: compared with thienamycin; cited from earlier work.
Data set [10] concerns dehydrogenase-1(DHP-I enzyme) present in kidney. The conditions noted are these: cited from earlier work.
The test system of data set [11] is gram-positive and gram-negative bacteria. As to conditions: cited from earlier work.
The conditions of data set [12]: clinically administered; cited from earlier work.
[13] abbreviates: Klebsiella oxytoca 1082E, 10^6 viable cells/ml, 37° C., 18 hours.
[14] abbreviates: Pseudomonas aeruginosa 1592E, 10^6 viable cells/ml, 37° C., 18 hours.
[15] abbreviates: Salmonella typhimurium, 10^6 viable cells/ml, 37° C., 18 hours.
The mark [16] stands for this setting: Enterobacter cloacae 1321E, 10^6 viable cells/ml, 37° C., 18 hours.
[17] abbreviates: Klebsiella aerogenes 1522E, 10^6 viable cells/ml, 37° C., 18 hours.
Where [18] appears, read: Pseudomonas aeruginosa 9027, 10^6 viable cells/ml, 37° C., 18 hours.
Where [19] appears, read: DC2, Escherichia coli DC 2, 10^6 viable cells/ml, 37° C., 18 hours.
The mark [20] stands for this setting: SG511, Staphylococcus aureus SG 511, 10^6 viable cells/ml, 37° C., 18 hours.

Structures are written as SMILES. In brackets after ≈: the same amount, converted by molar mass. Like-named read-outs stand apart in the source and are kept apart here.

Regarding `C[C@@H](O)[C@H]1C(=O)N2C(C(=O)O)=C(S[C@@H]3CN[C@H](CSCC(=O)NCC#N)C3)[C@H](C)[C@H]12` [Example 1, (1R,5S,6S)-2-[(2S,4S)-2-{(cyanomethylcarbamoyl)methylmercaptomethyl}pyrrolidin-4-yl]thio-6-[(R)-1-hydroxyethyl]-1-methyl-1-carbapen-2-em-3-carboxylicacid], the MIC in the data set with Klebsiella oxytoca 1082E (setting [13]) turned out to be 0.2 µg/mL (≈ 0.44 µM); in data set [1] (setting [14]), 0.78 µg/mL (≈ 1.72 µM); in the data set on Salmonella typhimurium (setting [15]), 0.2 µg/mL (≈ 0.44 µM); with Escherichia coil TEM, 0.1 µg/mL (≈ 0.22 µM); in data set [2] (setting [16]), 0.05 µg/mL (≈ 0.11 µM); in data set [3] (setting [17]), 0.2 µg/mL (≈ 0.44 µM). Moreover, the MIC in data set [4] (setting [18]) came to 0.1 µg/mL (≈ 0.22 µM); in the data set on Escherichia coli DC 2 (setting [19]), 0.1 µg/mL (≈ 0.22 µM); in [5] (setting [20]), 0.05 µg/mL (≈ 0.11 µM). The fraction remaining at 5 min in data set [6] stood at 99.7%. Besides, the fraction remaining at 10 min in [6] was 99.4%. Moreover, the share remaining at 20 min in [6] is 99.1%. For the same compound, the share remaining at 40 min in data set [6] was 98.1%. In addition, the share remaining at 80 min in data set [6] was determined as 97.5%. In addition, the share remaining at 2 h in data set [6] was 97.2%.

With `C[C@@H](O)[C@H]1C(=O)N2C(C(=O)O)=C(S[C@@H]3CN[C@H](CSCCC(=O)NCC#N)C3)[C@H](C)[C@H]12` [Example 2, (1R,5S,6S)-2-[(2S,4S)-2-{(cyanomethylcarbamoyl)ethylmercaptomethyl}pyrrolidin-4-yl]thio-6-[(R)-1-hydroxyethyl]1-methyl-1-carbapen-2-em-3-carboxylic acid], the MIC in the data set on Klebsiella oxytoca 1082E (setting [13]) was 0.2 µg/mL (≈ 0.427 µM); in [1] (setting [14]), 0.78 µg/mL (≈ 1.66 µM); in the data set with Salmonella typhimurium (setting [15]) it was 0.1 µg/mL (≈ 0.213 µM); in the data set on Escherichia coil TEM, 0.05 µg/mL (≈ 0.107 µM); in [2] (setting [16]) it was 0.05 µg/mL (≈ 0.107 µM); in [3] (setting [17]) it was 0.1 µg/mL (≈ 0.213 µM). Further, the figures for the MIC (in [4] (setting [18]); in the data set on Escherichia coli DC 2 (setting [19]); in [5] (setting [20])) were 0.78 µg/mL (≈ 1.66 µM), 0.1 µg/mL (≈ 0.213 µM) and 0.05 µg/mL (≈ 0.107 µM), respectively. In addition, the fraction remaining at 5 min in data set [6] turned out to be 100%. In addition, in data set [6], the share remaining at 10 min is 99.4%. The fraction remaining at 20 min in data set [6] is 98.6%. Also, the share remaining at 40 min in data set [6] turned out to be 97.2%. In addition, in [6], the share remaining at 80 min turned out to be 96.3%. The fraction remaining at 2 h in data set [6] turned out to be 96.3%.

With `C[C@@H](O)[C@H]1C(=O)N2C(C(=O)O)=C(S[C@@H]3CN[C@H](CSCCC(=O)NCCO)C3)[C@H](C)[C@H]12` [Example 3, (1R,5S,6S)-2-[(2S,4S)-2-{(hydroxyethylcarbamoyl)ethylmercaptomethyl}pyrrolidin-4-yl]thio-6-[(R)-1-hydroxyethyl]-1-methyl-1-carbapen-2-em-3-carboxylicacid], the MIC is 0.2 µg/mL (≈ 0.422 µM) in the data set with Klebsiella oxytoca 1082E (setting [13]); 0.39 µg/mL (≈ 0.823 µM) in [1] (setting [14]); 0.1 µg/mL (≈ 0.211 µM) with Salmonella typhimurium (setting [15]); 0.05 µg/mL (≈ 0.106 µM) with Escherichia coil TEM; 0.05 µg/mL (≈ 0.106 µM) in data set [2] (setting [16]); 0.1 µg/mL (≈ 0.211 µM) in data set [3] (setting [17]). Moreover, the figures for the MIC (in data set [4] (setting [18]); in the data set with Escherichia coli DC 2 (setting [19]); in data set [5] (setting [20])) were 0.39 µg/mL (≈ 0.823 µM), 0.1 µg/mL (≈ 0.211 µM) and 0.05 µg/mL (≈ 0.106 µM), respectively. Besides, the fraction remaining at 5 min in data set [6] was found to be 99.7%. Besides, the amount remaining at 10 min in data set [6] came to 99.2%. Moreover, the fraction remaining at 20 min in [6] is 98.9%. The fraction remaining at 40 min in data set [6] came to 98%. Also, the share remaining at 80 min in data set [6] stood at 97.2%. In addition, the amount remaining at 2 h in data set [6] was found to be 97%.

Consider `C[C@@H](O)[C@H]1C(=O)N2C(C(=O)O)=C(S[C@@H]3CN[C@H](CSCCC(=O)NCC(N)=O)C3)[C@H](C)[C@H]12` [Example 4, (1R,5S,6S)-2-[(2S,4S)-2-{(2-carbamoylmethylcarbamoyl)ethylmercaptomethyl}pyrrolidin-4-yl]thio-6-[(R)-1-hydroxyethyl]-1-methyl-1-carbapen-2-em-3-carboxylic acid], for which the MIC is 0.2 µg/mL (≈ 0.411 µM) with Klebsiella oxytoca 1082E (setting [13]); 0.78 µg/mL (≈ 1.6 µM) in data set [1] (setting [14]); 0.2 µg/mL (≈ 0.411 µM) in the data set on Salmonella typhimurium (setting [15]); 0.1 µg/mL (≈ 0.206 µM) with Escherichia coil TEM; 0.05 µg/mL (≈ 0.103 µM) in data set [2] (setting [16]); 0.1 µg/mL (≈ 0.206 µM) in data set [3] (setting [17]). In addition, the values for the MIC (in [4] (setting [18]); in the data set on Escherichia coli DC 2 (setting [19]); in [5] (setting [20])) were 0.1 µg/mL (≈ 0.206 µM), 0.1 µg/mL (≈ 0.206 µM) and 0.05 µg/mL (≈ 0.103 µM), respectively. In addition, the fraction remaining at 5 min in [6] amounted to 100%. Besides, the share remaining at 10 min in data set [6] came out at 99.8%. For the same compound, the fraction remaining at 20 min in [6] turned out to be 99%. For the same compound, the amount remaining at 40 min in data set [6] was determined as 99.8%. Further, the share remaining at 80 min in [6] stood at 98.8%. Besides, the share remaining at 2 h in data set [6] came out at 98.8%.

Consider `C[C@@H](O)[C@H]1C(=O)N2C(C(=O)O)=C(SCCN=CN)C[C@H]12` [Imipenem, (5R, 6S, 8R)-3-[[2-(formimidoylamino)ethyl]thio]-6-(1-hydroxyethyl)-7-oxo-1-azabicyclo[3.2.0]hept-ene-2-carboxylic acid hydrate, reference compound], for which the “antibacterial activity relative to thienamycin, in words” value in data set [7] is recorded as “equivalent to, or higher than, that of thienamycin”. Moreover, in [8], the “renal toxicity, in words” value is “serious renal toxicity”. In addition, in data set [9], the “decomposition by DHP-I, in words” value was “can be readily decomposed by DHP-I enzyme present in human kidney”. The “antibacterial activity, times stronger than that of thienamycin” value with Pseudomonas aeruginosa is 2 to 4 times. Also, the MIC in the data set with Klebsiella oxytoca 1082E (Klebsiella oxytoca, 1082E, 18 h) amounted to 0.39 µg/mL; in [1] (Pseudomonas aeruginosa, 1592E, 18 h), 0.78 µg/mL; with Salmonella typhimurium (TYPHIMURIUM, 18 h), 0.78 µg/mL; with Escherichia coil TEM it was 0.2 µg/mL; in data set [2] (Enterobacter cloacae, 1321E, 18 h), 0.2 µg/mL; in [3] (Klebsiella aerogenes, 1522E, 18 h), 0.78 µg/mL. Moreover, the MIC in data set [4] (Pseudomonas aeruginosa, 9027, 18 h) was determined as 0.78 µg/mL; in the data set on Escherichia coli DC 2 (Escherichia coli, DC2, 18 h), 0.78 µg/mL; in [5] (Staphylococcus aureus, SG511, 18 h), 0.1 µg/mL. The share remaining at 5 min in data set [6] stood at 99.2%. In addition, in data set [6], the fraction remaining at 10 min was 97.9%. In addition, in data set [6], the share remaining at 20 min amounted to 94.3%. In data set [6], the share remaining at 40 min came to 87.7%. In data set [6], the fraction remaining at 80 min was found to be 77%. The fraction remaining at 2 h in [6] came out at 66.6%. For the same compound, in data set [6] (pig, within about 2 hours from beginning of mixing incubation, read-out: decomposition ("was composed by about 40%")), the metabolised at 2 h was about 40%.

For `C[C@@H](O)[C@H]1C(=O)N2C(C(=O)O)=C(SCCN)CC12` (stereo partly drawn) [thienamycin, [5R-[5α, 6α(R*)]]-3-[(2-aminoethyl)-thio]-6-(1-hydroxyethyl)-7-oxo-1-azabicyclo[3.2.0]-hept-2-ene-2-carboxylic acid], the “decomposition in vivo by DHP-I, in words” value in data set [10] is on record as “can be readily decomposed in vivo by dehydrogenase-1(DHP-I enzyme) present in kidney”. Also, in [11], the “antimicrobial activity, in words” value was “broad and potent antimicrobial activity against gram-positive and gram-negative bacteria”. In addition, in data set [12], the “recovery rate in urine” value is recorded as “extremely low”.

A word on the amount remaining: it is what is left of the initial amount, in per cent.
